According to ChEMBL document CHEMBL4138123, “Design, synthesis and biological evaluation of novel pyrazolochalcones as potential modulators of PI3K/Akt/mTOR pathway and inducers of apoptosis in breast cancer cells” (Eur J Med Chem, 2017):

Key:
Format in all cases: functional
[1] = system: HL-60(TB); test: Cytotoxicity against human HL-60(TB) cells assessed as cell growth at 0.01 uM after 48 hrs by sulforhodamine B assay relative to control; conditions: HL-60, 48 h, read-out: Activity
[2] = system: M14; test: Cytotoxicity against human M14 cells assessed as cell growth at 1 uM after 48 hrs by sulforhodamine B assay relative to control; conditions: M14, 48 h, read-out: Activity
[3] = system: OVCAR-3; test: Cytotoxicity against human OVCAR3 cells assessed as cell growth at 0.1 uM after 48 hrs by sulforhodamine B assay relative to control; conditions: OVCAR-3, 48 h, read-out: Activity
[4] = system: NCI-H226; test: Cytotoxicity against human NCI-H226 cells assessed as cell growth at 0.01 uM after 48 hrs by sulforhodamine B assay relative to control; conditions: NCI-H226, 48 h, read-out: Activity
[5] = system: RXF 393; test: Cytotoxicity against human RXF393 cells assessed as cell growth at 10 uM after 48 hrs by sulforhodamine B assay relative to control; conditions: RXF 393, 48 h, read-out: Activity
[6] = system: MCF7; test: Cytotoxicity against human MCF7 cells assessed as cell growth at 0.01 uM after 48 hrs by sulforhodamine B assay relative to control; conditions: MCF7, 48 h, read-out: Activity
[7] = system: HCC 2998; test: Cytotoxicity against human HCC2998 cells assessed as growth inhibition after 48 hrs by sulforhodamine B assay; conditions: HCC 2998, 48 h
[8] = system: CCRF-CEM; test: Cytotoxicity against human CCRF-CEM cells assessed as cell growth at 10 uM after 48 hrs by sulforhodamine B assay relative to control; conditions: read-out: Activity
[9] = system: CCRF-CEM; test: Cytotoxicity against human CCRF-CEM cells assessed as cell growth at 1 uM after 48 hrs by sulforhodamine B assay relative to control; conditions: read-out: Activity
[10] = system: NCI/ADR-RES; test: Cytotoxicity against human NCI/ADR-RES cells assessed as cell growth at 1 uM after 48 hrs by sulforhodamine B assay relative to control; conditions: read-out: Activity
[11] = system: SF-539; test: Cytotoxicity against human SF539 cells assessed as cell growth at 0.1 uM after 48 hrs by sulforhodamine B assay relative to control; conditions: SF-539, 48 h, read-out: Activity
[12] = system: K562; test: Cytotoxicity against human K562 cells assessed as cell growth at 100 uM after 48 hrs by sulforhodamine B assay relative to control; conditions: K562, 48 h, read-out: Activity
[13] = system: OVCAR-3; test: Cytotoxicity against human OVCAR3 cells assessed as cell growth at 0.01 uM after 48 hrs by sulforhodamine B assay relative to control; conditions: OVCAR-3, 48 h, read-out: Activity
[14] = system: NCI-H226; test: Cytotoxicity against human NCI-H226 cells assessed as cell growth at 10 uM after 48 hrs by sulforhodamine B assay relative to control; conditions: NCI-H226, 48 h, read-out: Activity
[15] = system: NCI-H460; test: Cytotoxicity against human NCI-H460 cells assessed as cell growth at 10 uM after 48 hrs by sulforhodamine B assay relative to control; conditions: NCI-H460, 48 h, read-out: Activity
[16] = system: HOP-62; test: Cytotoxicity against human HOP62 cells assessed as growth inhibition after 48 hrs by sulforhodamine B assay; conditions: HOP-62, 48 h
[17] = system: K562; test: Cytotoxicity against human K562 cells assessed as cell growth at 1 uM after 48 hrs by sulforhodamine B assay relative to control; conditions: K562, 48 h, read-out: Activity
[18] = system: KM12; test: Cytotoxicity against human KM12 cells assessed as growth inhibition after 48 hrs by sulforhodamine B assay; conditions: KM12, 48 h
[19] = system: IGROV-1; test: Cytotoxicity against human IGROV1 cells assessed as cell growth at 100 uM after 48 hrs by sulforhodamine B assay relative to control; conditions: IGROV-1, 48 h, read-out: Activity
[20] = system: M14; test: Cytotoxicity against human M14 cells assessed as cell growth at 10 uM after 48 hrs by sulforhodamine B assay relative to control; conditions: M14, 48 h, read-out: Activity
[21] = system: K562; test: Cytotoxicity against human K562 cells assessed as cell growth at 10 uM after 48 hrs by sulforhodamine B assay relative to control; conditions: K562, 48 h, read-out: Activity
[22] = system: OVCAR-8; test: Cytotoxicity against human OVCAR8 cells assessed as cell growth at 0.1 uM after 48 hrs by sulforhodamine B assay relative to control; conditions: OVCAR-8, 48 h, read-out: Activity
[23] = system: UO-31; test: Cytotoxicity against human UO31 cells assessed as cell growth at 100 uM after 48 hrs by sulforhodamine B assay relative to control; conditions: UO-31, 48 h, read-out: Activity
[24] = system: OVCAR-3; test: Cytotoxicity against human OVCAR3 cells assessed as cell growth at 100 uM after 48 hrs by sulforhodamine B assay relative to control; conditions: OVCAR-3, 48 h, read-out: Activity
[25] = system: IGROV-1; test: Cytotoxicity against human IGROV1 cells assessed as cell growth at 1 uM after 48 hrs by sulforhodamine B assay relative to control; conditions: IGROV-1, 48 h, read-out: Activity
[26] = system: SK-MEL-5; test: Cytotoxicity against human SK-MEL-5 cells assessed as cell growth at 0.1 uM after 48 hrs by sulforhodamine B assay relative to control; conditions: SK-MEL-5, 48 h, read-out: Activity
[27] = system: Hs-578T; test: Cytotoxicity against human Hs 578T cells assessed as growth inhibition after 48 hrs by sulforhodamine B assay
[28] = system: SR; test: Cytotoxicity against human SR cells assessed as growth inhibition after 48 hrs by sulforhodamine B assay; conditions: for CC50: read-out: LC50 (the source's name)
[29] = system: Malme-3M; test: Cytotoxicity against human MALME-3M cells assessed as cell growth at 100 uM after 48 hrs by sulforhodamine B assay relative to control; conditions: read-out: Activity
[30] = system: NCI-H460; test: Cytotoxicity against human NCI-H460 cells assessed as cell growth at 0.1 uM after 48 hrs by sulforhodamine B assay relative to control; conditions: NCI-H460, 48 h, read-out: Activity
[31] = system: Malme-3M; test: Cytotoxicity against human MALME-3M cells assessed as cell growth at 1 uM after 48 hrs by sulforhodamine B assay relative to control; conditions: read-out: Activity
[32] = system: 786-0; test: Cytotoxicity against human 786-0 cells assessed as cell growth at 1 uM after 48 hrs by sulforhodamine B assay relative to control; conditions: 786-0, 48 h, read-out: Activity
[33] = system: UO-31; test: Cytotoxicity against human UO31 cells assessed as cell growth at 10 uM after 48 hrs by sulforhodamine B assay relative to control; conditions: UO-31, 48 h, read-out: Activity
[34] = system: HT-29; test: Cytotoxicity against human HT-29 cells assessed as cell growth at 100 uM after 48 hrs by sulforhodamine B assay relative to control; conditions: HT-29, 48 h, read-out: Activity
[35] = system: COLO 205; test: Cytotoxicity against human COLO205 cells assessed as cell growth at 0.01 uM after 48 hrs by sulforhodamine B assay relative to control; conditions: COLO 205, 48 h, read-out: Activity
[36] = system: BT-549; test: Cytotoxicity against human BT549 cells assessed as cell growth at 0.1 uM after 48 hrs by sulforhodamine B assay relative to control; conditions: BT-549, 48 h, read-out: Activity
[37] = system: DU-145; test: Cytotoxicity against human DU145 cells assessed as cell growth at 0.1 uM after 48 hrs by sulforhodamine B assay relative to control; conditions: DU-145, 48 h, read-out: Activity

COc1cc(-c2cc(/C=C/C(=O)c3ccc(Cl)c(Cl)c3)[nH]n2)cc(OC)c1OC
growth at 0.01 µM [1]: 105% | growth at 1 µM [2]: 107% | growth at 0.1 µM [3]: 105% | growth at 0.01 µM [4]: 103% | growth at 10 µM [5]: 9% | growth at 0.01 µM [6]: 105% | LC50 [7]: > 100 µM | TGI [7]: 31.4 µM | growth at 10 µM [8]: 9% | growth at 1 µM [9]: 71% | growth at 1 µM [10]: 92% | growth at 0.1 µM [11]: 94% | growth at 100 µM [12]: -7% | growth at 0.01 µM [13]: 103% | growth at 10 µM [14]: 67% | growth at 10 µM [15]: 31% | LC50 [16]: 42.6 µM | TGI [16]: 7.66 µM | growth at 1 µM [17]: 101% | LC50 [18]: > 100 µM | TGI [18]: > 100 µM | growth at 100 µM [19]: 9% | growth at 10 µM [20]: 61% | growth at 10 µM [21]: 28% | growth at 0.1 µM [22]: 97% | growth at 100 µM [23]: 18% | growth at 100 µM [24]: -30% | growth at 1 µM [25]: 99% | growth at 0.1 µM [26]: 97% | LC50 [27]: > 100 µM | TGI [27]: > 100 µM | TGI [28]: 13.5 µM | CC50 [28]: 96 µM | growth at 100 µM [29]: 24% | growth at 0.1 µM [30]: 105% | growth at 1 µM [31]: 95% | growth at 1 µM [32]: 91% | growth at 10 µM [33]: 40% | growth at 100 µM [34]: 3% | growth at 0.01 µM [35]: 103% | growth at 0.1 µM [36]: 95%

COc1cc(-c2cc(/C=C/C(=O)c3ccc(F)c(F)c3)[nH]n2)cc(OC)c1OC
growth at 0.01 µM [1]: 102% | growth at 1 µM [2]: 86% | growth at 0.1 µM [3]: 104% | growth at 0.01 µM [4]: 99% | growth at 10 µM [5]: -20% | growth at 0.01 µM [6]: 91% | LC50 [7]: > 100 µM | TGI [7]: 34.1 µM | growth at 10 µM [8]: 7% | growth at 1 µM [9]: 91% | growth at 1 µM [10]: 95% | growth at 0.1 µM [11]: 97% | growth at 100 µM [12]: -7% | growth at 0.01 µM [13]: 102% | growth at 10 µM [14]: 16% | growth at 10 µM [15]: -9% | LC50 [16]: > 100 µM | TGI [16]: > 100 µM | growth at 1 µM [17]: 102% | LC50 [18]: > 100 µM | TGI [18]: 11.4 µM | growth at 100 µM [19]: -1% | growth at 10 µM [20]: 3% | growth at 10 µM [21]: 2% | growth at 0.1 µM [22]: 96% | growth at 100 µM [23]: -16% | growth at 100 µM [24]: -64% | growth at 1 µM [25]: 95% | growth at 0.1 µM [26]: 96% | LC50 [27]: > 100 µM | TGI [27]: 36.8 µM | TGI [28]: > 100 µM | CC50 [28]: > 100 µM | growth at 100 µM [29]: -31% | growth at 0.1 µM [30]: 102% | growth at 1 µM [31]: 97% | growth at 1 µM [32]: 93% | growth at 10 µM [33]: 3% | growth at 100 µM [34]: -67% | growth at 0.01 µM [35]: 101% | growth at 0.1 µM [36]: 105%

COc1ccc(C(=O)/C=C/c2cc(-c3ccc4c(c3)OCO4)n[nH]2)cc1OC
growth at 0.01 µM [1]: 97% | growth at 1 µM [2]: 100% | growth at 0.1 µM [3]: 104% | growth at 0.01 µM [4]: 90% | growth at 10 µM [5]: -39% | growth at 0.01 µM [6]: 92% | LC50 [7]: 48.1 µM | TGI [7]: 17.3 µM | growth at 10 µM [8]: -2% | growth at 1 µM [9]: 85% | growth at 0.1 µM [11]: 95% | growth at 0.1 µM [37]: 100% | growth at 100 µM [12]: -12% | growth at 0.01 µM [13]: 103% | growth at 10 µM [14]: 1% | growth at 10 µM [15]: -56% | LC50 [16]: 25.8 µM | TGI [16]: 5.6 µM | growth at 1 µM [17]: 80% | LC50 [18]: 34.9 µM | TGI [18]: 9.48 µM | growth at 100 µM [19]: -59% | growth at 10 µM [20]: 38% | growth at 10 µM [21]: 4% | growth at 0.1 µM [22]: 98% | growth at 100 µM [23]: -93% | growth at 100 µM [24]: -67% | growth at 1 µM [25]: 93% | growth at 0.1 µM [26]: 97% | GI50 [27]: 2.69 µM | LC50 [27]: > 100 µM | TGI [27]: 8.21 µM | TGI [28]: 6.48 µM | CC50 [28]: > 100 µM | growth at 100 µM [29]: -74% | growth at 0.1 µM [30]: 102% | growth at 1 µM [31]: 106% | growth at 1 µM [32]: 94% | growth at 100 µM [34]: -44% | growth at 0.01 µM [35]: 102% | growth at 0.1 µM [36]: 99%
